Test results reported in publication PMC4183567, “Cysteine Transport through Excitatory Amino Acid Transporter 3 (EAAT3)” (PLoS ONE, 2014).
Where “and” joins values, the source holds several entries; their conditions need not be identical. Identical values can stand only once. Like-named read-outs stand apart in the source and are kept apart here. One block for each molecule: values may come before it.

Legend:
EAAT3 [1] = biological target: T1, EAAT3 (Homo sapiens, UniProt P43005); experiment: mEGFPpH fluorescence imaging of intracellular pH in HEK293 cells co-expressing EAAT3; details: EAAT3 HEK293 cells; for mEGFPpH fluorescence change: 1 mM perfusion; for slope of fluorescence change normalized to that of 100 µM glutamate: selenocysteine at 100 µM, cysteine change opposite in direction
T1 sequence (P43005 1-524): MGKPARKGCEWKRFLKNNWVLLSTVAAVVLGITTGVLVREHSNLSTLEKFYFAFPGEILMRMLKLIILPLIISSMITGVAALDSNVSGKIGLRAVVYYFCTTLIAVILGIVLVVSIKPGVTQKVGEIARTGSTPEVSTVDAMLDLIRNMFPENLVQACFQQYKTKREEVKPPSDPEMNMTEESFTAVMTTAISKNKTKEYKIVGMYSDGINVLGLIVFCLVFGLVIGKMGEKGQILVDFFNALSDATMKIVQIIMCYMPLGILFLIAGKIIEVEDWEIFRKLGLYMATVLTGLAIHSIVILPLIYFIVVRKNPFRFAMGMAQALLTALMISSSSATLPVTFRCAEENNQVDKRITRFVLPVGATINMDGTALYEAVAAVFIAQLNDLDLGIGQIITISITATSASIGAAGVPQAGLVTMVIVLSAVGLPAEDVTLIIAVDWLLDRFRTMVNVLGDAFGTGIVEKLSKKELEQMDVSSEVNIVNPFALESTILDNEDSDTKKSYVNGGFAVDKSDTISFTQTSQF
Source text: (§7) Cells expressing mEGFPpH were imaged with a Zeiss Axiovert 135T inverted microscope with a 40X NeoFluar oil immersion objective (NA1.3). A Lambda DG4 (Sutter Instrument Co.) equipped with a xenon arc lamp was used for high-speed excitation wavelength switching. Images were collected using either a Quantix (Roper Scientific, Tucson, AZ) or an Orca ER (Hammamatsu Co.) cooled CCD. For pH imaging experiments, the fluorescence filters (Omega Optical) were: excitation 405±20 and 485±7.5; dichroic 400-480-585DLRP; emission 510±11.5. Software control and data acquisition were accomplished using Axon Imaging Workbench (INDEC Biosystems) or OpenLab acquisition software (Improvision, Perkin Elmer). Cells were incubated at room temperature with continuous perfusion using standard buffer containing (in mM): 146 NaCl, 5 KCl, 5 HEPES, 2.5 CaCl2 and 1.2 MgCl2 at pH 7.35 with additions (substrates etc.) as indicated in figure legends. Acquisition exposure times were identical for both 405 nm and 485 nm excitation wavelengths adjusted so that the 510 emission was not saturated for either excitation wavelength. Prior to perfusion with buffers containing substrates, cells were perfused in standard buffer to achieve a stable base line. Fluorescence was reported as the ratio of fluorescence at 510 nm by excitation with 485 and 405 nm wavelengths (F485/F405).

EAAT1 = biological target: T2, EAAT1 (Homo sapiens, UniProt P43003); experiment: Two-electrode voltage clamp transport currents in Xenopus oocytes expressing EAAT1; format: cell-based; details: 1 mM substrate vs 1 mM glutamate, -60 mV
T2 construct: expressed in transfected cells; host or cells: Xenopus oocytes injected with mRNA
Procedure: (§1) mRNA from linearized pOTV-EAAT1, pOTV-EAAT2 and pOTV-EAAT3 was generated as previously described and resuspended in RNAase-free water and used for oocytes injections. Xenopus oocytes where injected with 50 nl of mRNA and incubated at 18°C in 96 mM NaCl, 2 mM KCl, 1.8 mM CaCl2, 1.0 mM MgCl2, 5 mM HEPES, pH 7.4 (ND96) supplemented with 2.5 mM Sodium Pyruvate and Gentamicyn for 2 to 3 days prior to using in electrophysiological recordings and radio-labeled transport experiments.
(§2) Oocytes were held at −60 mV, and currents elicited by 200 ms voltage steps between −120 mV and +60 mV were filtered at 2 kHz (−3dB) and digitalized with a sampling rate of 10 kHz using a Digidata AD/DA converter (Molecular Devices, Sunnyvale, CA, USA). Borosilicate pipets where filled with 3 M KCl and typical resistances where 0.2 to 1 MΩ. Transport currents were determined at −60 mV in a gluconate-based ND96 solution. In order to dialyze internal chloride, oocytes were incubated 12 to 24 hours in the gluconate solution. Anion currents were determined at positive potentials (+60 mV) after exchanging the external solution to NO3-based ND96 (replacement of 96 mM NaCl with 96 mM NaNO3) solution in the absence or in the presence of 1 mM external substrates. […] Data were analyzed with a combination of pClamp 9.2 (Axon Instrument) and Sigma Plot (Jandel Scientific, San Rafael, CA, USA). […]

EAAT3 [2] = test system: EAAT3; set-up: method as in PMID 8782106; details: EAAT3 vs other EAATs; cited from earlier work
EAAT2 [3] = biological target: T3, EAAT2 (Homo sapiens, UniProt P43004); experiment: Substrate inhibition of [3H]-L-glutamate uptake in HEK293 cells expressing EAAT2; format: cell-based; set-up: expressed in transfected cells; host or cells: HEK293
Procedure: (§3) For radiolabeled transport experiments, 2×10^6 cells were transfected in 1 mL of Opti-Mem (Life Technologies) using 6 µL of Lipofectamine 2000 (Invitrogen) with 1 µg pCMV-EAAT2 or pCMV-EAAT3 DNA and plated at 5×10^4 cells/well in 24 well Costar (Corning) plates with 0.5 mL DMEM culture media prepared as above. Following transfection and plating, cells were cultured 2–3 days prior to [^3H]-L-Glutamate transport experiments.
(§4) Transport was allowed to proceed for 10 min and was terminated by 3 washes with cold perfusion buffer. Cells were lysed with 1% SDS/0.1N NaOH and radioactivity determined by scintillation counting. Data analysis was performed using Graphpad Prism (Graphpad Software Inc.).

EAAT3 [4] = biological target: T1, EAAT3; experiment: Two-electrode voltage clamp transport currents in Xenopus oocytes expressing EAAT3; format: cell-based; details: for transport current amplitude relative to glutamate transport current: 1 mM substrate vs 1 mM glutamate, EAAT3 oocytes, -60 mV
Procedure: as §1
(§5) Oocytes were held at −60 mV, and currents elicited by 200 ms voltage steps between −120 mV and +60 mV were filtered at 2 kHz (−3dB) and digitalized with a sampling rate of 10 kHz using a Digidata AD/DA converter (Molecular Devices, Sunnyvale, CA, USA). Borosilicate pipets where filled with 3 M KCl and typical resistances where 0.2 to 1 MΩ. Transport currents were determined at −60 mV in a gluconate-based ND96 solution. In order to dialyze internal chloride, oocytes were incubated 12 to 24 hours in the gluconate solution. Anion currents were determined at positive potentials (+60 mV) after exchanging the external solution to NO3-based ND96 (replacement of 96 mM NaCl with 96 mM NaNO3) solution in the absence or in the presence of 1 mM external substrates. In experiments using cysteine as a substrate, all solutions contained 2 mM dithiothreitol (DTT). Data were analyzed with a combination of pClamp 9.2 (Axon Instrument) and Sigma Plot (Jandel Scientific, San Rafael, CA, USA). Whole cell current amplitudes are shown without any subtraction protocol. Current-voltage relationships were constructed by plotting the isochronal current 6 ms after the voltage step versus the membrane potential. All data are given as the mean ± standard deviation of the mean (SDM). For evaluation the statistical relevance, the Student’s t-Test was used with an α of 0.05.

EAAT3 [5] = biological target: T1, EAAT3; experiment: Substrate inhibition of [3H]-L-glutamate uptake in HEK293 cells expressing EAAT3; format: cell-based; set-up: expressed in transfected cells; host or cells: HEK293
Procedure: as §3, §4

EAAT2 [6] = biological target: T3, EAAT2; experiment: mEGFPpH fluorescence imaging of intracellular pH in HEK293 cells co-expressing EAAT2; format: cell-based; set-up: expressed in transfected cells; host or cells: HEK293; details: for mEGFPpH fluorescence change: 1 mM perfusion; for slope of fluorescence change normalized to that of 100 µM glutamate: selenocysteine at 100 µM
Source text: as §7

[7] = Protonation state calculated with the Henderson-Hasselbalch equation; format: physicochemical
EAAT2 [8] = test system: EAAT2; set-up: method as in PMID 8782106; details: EAAT2, low affinity; read-out: Km for cysteine transport; cited from earlier work
EAAT2 [9] = biological target: T3, EAAT2; experiment: Two-electrode voltage clamp transport currents in Xenopus oocytes expressing EAAT2; format: cell-based; details: 1 mM substrate vs 1 mM glutamate, -60 mV
Procedure: as §1, §2

EAAT3 and ASCT1 [10] = biological target: T4, EAAT3 and ASCT1 (Homo sapiens, UniProt P43005); experiment: Release of preloaded [3H]-L-glutamate from Xenopus oocytes co-expressing EAAT3 and ASCT1; format: cell-based; details: extracellular cysteine, concentration not given
T4 construct: expressed in transfected cells; host or cells: Xenopus oocytes
T4 sequence (P43005 1-524): T1 sequence (P43005 1-524)
Procedure: as §1
(§6) Oocytes were washed 3 times in ND96 buffer followed by incubation for 10 min with non-radiolabeled substrates as indicated. The supernatant was removed and collected for scintillation counting, while the oocytes were lysed in 1% sodium dodecylsulfate (SDS). The oocytes lysate and supernatant were counted separately by liquid scintillation counting to determine both retained and released radioactivity respectively. Percent of released radioactivity was determined as a function of the released/(retained + released).

EAAT3 and ASCT1 [11] = experiment: Release of preloaded [35S]-L-cysteine from Xenopus oocytes co-expressing EAAT3 and ASCT1; format: cell-based, human
Procedure: mRNA from linearized pOTV-EAAT1, pOTV-EAAT2 and pOTV-EAAT3 was generated as previously described and resuspended in RNAase-free water and used for oocytes injections.
as §6

[12] = amino acid side chain; cited from earlier work
EAAT3 [13] = biological target: T1, EAAT3; experiment: Substrate-gated anion (NO3) currents in Xenopus oocytes expressing EAAT3; format: cell-based; details: 1 mM substrate, NO3-based solution, Figure 2C, n = 4
Procedure: as §1, §5

T3 sequence (P43004 whole entry): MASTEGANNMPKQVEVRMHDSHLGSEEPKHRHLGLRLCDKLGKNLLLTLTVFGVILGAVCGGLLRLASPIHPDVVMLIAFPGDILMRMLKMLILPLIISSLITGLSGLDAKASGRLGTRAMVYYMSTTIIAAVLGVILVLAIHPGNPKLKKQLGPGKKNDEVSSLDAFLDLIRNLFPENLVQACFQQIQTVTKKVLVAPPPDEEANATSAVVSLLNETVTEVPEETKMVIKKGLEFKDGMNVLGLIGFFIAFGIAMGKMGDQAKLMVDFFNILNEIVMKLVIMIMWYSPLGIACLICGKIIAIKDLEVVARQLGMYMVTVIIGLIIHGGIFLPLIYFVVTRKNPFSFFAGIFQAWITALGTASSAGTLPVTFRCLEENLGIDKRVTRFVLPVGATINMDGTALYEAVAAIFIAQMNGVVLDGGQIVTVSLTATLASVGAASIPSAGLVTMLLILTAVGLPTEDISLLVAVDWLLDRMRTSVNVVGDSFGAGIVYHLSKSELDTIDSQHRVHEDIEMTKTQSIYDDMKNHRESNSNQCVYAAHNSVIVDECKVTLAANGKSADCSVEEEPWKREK
T2 sequence (P43003 whole entry): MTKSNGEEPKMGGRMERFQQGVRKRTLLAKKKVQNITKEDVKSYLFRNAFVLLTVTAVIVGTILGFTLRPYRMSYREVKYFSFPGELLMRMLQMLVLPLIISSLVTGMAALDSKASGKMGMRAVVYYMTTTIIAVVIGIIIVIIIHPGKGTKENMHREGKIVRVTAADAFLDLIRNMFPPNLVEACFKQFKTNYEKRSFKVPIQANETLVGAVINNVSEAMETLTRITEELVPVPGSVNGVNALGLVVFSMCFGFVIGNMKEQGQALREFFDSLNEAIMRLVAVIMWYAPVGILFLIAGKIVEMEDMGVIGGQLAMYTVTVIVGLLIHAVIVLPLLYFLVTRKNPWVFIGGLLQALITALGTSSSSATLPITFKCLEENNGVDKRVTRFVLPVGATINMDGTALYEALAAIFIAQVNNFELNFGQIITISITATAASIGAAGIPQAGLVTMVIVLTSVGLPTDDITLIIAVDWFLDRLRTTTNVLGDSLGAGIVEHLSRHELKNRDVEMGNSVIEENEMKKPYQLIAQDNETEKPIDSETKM

mEGFPpH fluorescence change (EAAT3 [1]): increase in mEGFPpH fluorescence
slope of fluorescence change normalized to that of 100 µM glutamate (EAAT3 [1]): 0.28±0.03
transport current amplitude relative to glutamate transport current (EAAT1): 33±1.5%
inhibition at 1000 µM (EAAT2 [3]; read-out: inhibition of glutamate transport, EAAT2 HEK293 cells, 1 mM inhibitor): 20%
transport current amplitude relative to glutamate transport current (EAAT3 [4]): 86±14%
IC50 (EAAT3 [5]): 631 ± 50 µM
inhibition at 1000 µM (EAAT3 [5]; read-out: inhibition of glutamate uptake, EAAT3 HEK293 cells, 1 mM inhibitor): 70%
slope of fluorescence change normalized to that of 100 µM glutamate (EAAT2 [6]): no observable fluorescence changes
fraction in thiolate form ([7]; pH 6.9): ~3.8% and 4%
fraction in thiolate (R-S-) form ([7]; pH 8.5): ~61%
fraction in thiolate form ([7]; pH = 7.5): ~14%
fraction protonated ([7]; physiological pH): ~90%
transport current amplitude relative to glutamate transport current (EAAT2 [9]): 7.0±4.2%
release of loaded [3H]-L-glutamate (EAAT3 and ASCT1 [10]): 7.5%
SMILES: N[C@@H](CS)C(=O)O [cysteine, L-cysteine]
fold higher apparent affinity for transport (Km) than the other members of the family (EAAT3 [2]): approximately 10 fold
mEGFPpH fluorescence change (EAAT2 [6]): did not produce observable fluorescence changes from baseline
Km (EAAT2 [8]): > 1000 µM
fold increase of [35S]-cysteine release over that released by glutamate application (EAAT3 and ASCT1 [11]; 300 µM cysteine vs 100 µM glutamate): 5 fold
release of preloaded [35S]-L-cysteine (EAAT3 and ASCT1 [11]; 300 µM extracellular substrate, 10 min): 10%

SMILES: N[C@@H](C[SeH])C(=O)O [selenocysteine, L-selenocysteine]
mEGFPpH fluorescence change (EAAT3 [1]): fluorescence decrease
slope of fluorescence change normalized to that of 100 µM glutamate (EAAT3 [1]): 0.86±0.03
transport current amplitude relative to glutamate transport current (EAAT1): 89.5±6.7%
side chain pKa [12]: 5.3
IC50 (EAAT2 [3]): 46 ± 12 µM
inhibition at 1000 µM (EAAT2 [3]; HEK293, read-out: inhibition of glutamate transport): ~90%
inward transport current (EAAT3 [4]; 1 µM selenocysteine perfusion, Figure 2A): 20 nA
transport current amplitude relative to glutamate transport current (EAAT3 [4]): 95.6±14%
IC50 (EAAT3 [5]): 71 ± 10 µM
fold lower IC50 than for cysteine (EAAT3 [5]; EAAT3 HEK293 cells): approximately 10 fold
inhibition at 1000 µM (EAAT3 [5]; HEK293, read-out: inhibition of glutamate uptake): > 90%
mEGFPpH fluorescence change (EAAT2 [6]): fluorescence decrease similar in magnitude to that observed for glutamate
slope of fluorescence change normalized to that of 100 µM glutamate (EAAT2 [6]): 0.85±0.02
fraction in deprotonated state ([7]; physiological pH): > 99%
anion current amplitude at +60 mV (EAAT3 [13]): 1.72±0.4 µA
transport current amplitude relative to glutamate transport current (EAAT2 [9]): 72.1±17%
